# pEC50: −log10 of the molar value.
# How the values were obtained:
# Type in all cases: cell-based
# PANC-1 = assay: FMCA, PANC-1 pancreatic cancer; settings: Homo sapiens, read-out: EC50 (μM) in various cancer cell lines: PANC-1
# Text: (§1) The Fluorometric Microculture Cytotoxicity Assay, FMCA, is a three day non-clonogenic microplate-based cell viability assay used for measurement of the cytotoxic and/or cytostatic effect of compounds in vitro (Lindhagen, E., et al. Nat Protoc, 2008. 3(8): p. 1364-9). FMCA (Larsson, R. and P. Nygren, Anticancer Res, 1989. 9(4): p. 1111-9) represents a valuable method to measure cytotoxicity in a number of cell types, both cell lines and primary cells from patients (Larsson, R., et al., Int J Cancer, 1992. 50(2): p. 177-85; Fridborg, H., et al., Eur J Cancer, 1999. 35(3): p. 424-32; Dhar, S., et al., Br J Cancer, 1996. 74(6): p. 888-96).
# (§2) FMCA is based on the principle that fluorescein diacetate (FDA) is converted to the fluorescent probe fluorescein by esterases in the […] of living cells. For experiments, 96 or 384-well microplates are prepared with compounds and stored at −70° C. until use. Cells are then seeded into the drug-prepared plates and placed in an incubator for 72 h. On the last day of incubation, the plates are washed and a buffer containing FDA is added and incubated with the cells for 45 minutes. Finally the fluorescence per well is measured in a fluorometer and a Survival Index % (SI) for each compound-treated well is calculated with the equation: Compound-treated cells minus blank divided by control cells minus blank. A high SI-value indicates a large percentage of living cells and vice versa. […]
# (§3) The compounds were also tested at five concentrations, with five times serial dilution on the following cell types: CCRF-CEM, hTERT-RPE1 (normal retinal epithelial cells), hRPTEpiC (normal renal cells) and PBMC (peripheral blood mononuclear cells). […] SI-values were calculated, graphs were plotted using GraphPadPrism 5.0 (GraphPad Software Inc. La Jolla, Calif.) and EC50-values for each cell type and compound were determined from the curves. […]
# U-937 = assay: FMCA, U-937 lymphoma; settings: Homo sapiens, read-out: EC50 (μM) in various cancer cell lines: U-937
# Text: as §1
# (§4) FMCA is based on the principle that fluorescein diacetate (FDA) is converted to the fluorescent probe fluorescein by esterases in the plasma membranes of living cells. For experiments, 96 or 384-well microplates are prepared with compounds and stored at −70° C. until use. Cells are then seeded into the drug-prepared plates and placed in an incubator for 72 h. On the last day of incubation, the plates are washed and a buffer containing FDA is added and incubated with the cells for 45 minutes. Finally the fluorescence per well is measured in a fluorometer and a Survival Index % (SI) for each compound-treated well is calculated with the equation: Compound-treated cells minus blank divided by control cells minus blank. A high SI-value indicates a large percentage of living cells and vice versa.
# (§5) Compounds of the invention as well as kinase inhibitors sorafenib, sunitinib, dasatinib, and pazopanib (reference compounds) were diluted with PBS to a concentration which was ten-times higher than the desired starting concentration. Then, a Biomek 2000 liquid handling system was employed to serially dilute the compounds in a deep-well 384-well plate. From this plate, assay plates containing 5 μl compound per well were prepared with the Biomek 2000. Certain compounds precipitated when diluted with PBS, and these compounds were therefore prepared in a 96-well plate manually as described above using culture medium RPMI 1640 instead of PBS.
# (§6) The compounds were also tested at five concentrations, with five times serial dilution on the following cell types: CCRF-CEM, hTERT-RPE1 (normal retinal epithelial cells), hRPTEpiC (normal renal cells) and PBMC (peripheral blood mononuclear cells). Each experiment was performed three times, except for PBMC and hRPTEpiC, which were performed twice. SI-values were calculated, graphs were plotted using GraphPadPrism 5.0 (GraphPad Software Inc. La Jolla, Calif.) and EC50-values for each cell type and compound were determined from the curves.
# (§7) The compounds of the invention were also tested on further cancer cell lines related to colon cancer (HCT116; see e.g Brattain M G, et al. Cancer Res. 1981, 41, 1751-1756), breast cancer (MCF7; see e.g. Soule H D, et al. J. Natl. Cancer Inst. 1973, 51, 1409-1416), teniposide-resistant leukaemia (CEM/VM1; see e.g. Danks M K et al. Cancer Res. 1987, 47, 1297-1301), lung cancer (H69; see e.g. Gazdar A F, et al. Cancer Res. 1980, 40, 3502-3507), doxorubicin-resistant lung cancer (H69AR; see e.g. Mirski S E, et al. Cancer Res. 1987, 47, 2594-2598), myeloma (RPMI 8226; see e.g. Matsuoka Y, et al. Proc. Soc. Exp. Biol. Med. 1967, 125, 1246-1250), doxorubicin-resistant myeloma (8226/Dox40; see e.g. Dalton W S et al. Blood 1989, 15,747-752), lymphoma (U-937, see e.g. Sundstrom C, et al. Int. J. Cancer 1976, 17, 565-577), vincristin-resistant lymphoma (U-937-vcr; see e.g. Botling J, et al. Int J Cancer 1994, 15; 58 (2), 269-274), ovarian cancer (A2780; see e.g. Hamilton T C, et al. Semin Oncol. 1984, 11, 285-298), doxorubicin-resistant ovarian cancer (A2780/Adr), cisplatin-resistant ovarian cancer (A2780/Cis; see e.g. Behrens B C, et al. Cancer Res. 1987, 47, 414-418), renal cancer (ACHN; see e.g. Borden E C, et al. Cancer Res. 1982, 42(12), 4948-4953), pancreatic cancer (PANC-1, BxPC-3, and MIA PaCa-2; see e.g. Lieber M, et al. Int. […]
# A2780/Cis = assay: FMCA, A2780/Cis cisplatin-resistant ovarian cancer; settings: A2780cis, read-out: EC50 (μM) in various cancer cell lines: A2780/Cis
# Text: as §1, §4, §5, §6
# (§8) The compounds of the invention were also tested on further cancer cell lines related to colon cancer (HCT116; see e.g Brattain M G, et al. Cancer Res. 1981, 41, 1751-1756), breast cancer (MCF7; see e.g. Soule H D, et al. J. Natl. Cancer Inst. 1973, 51, 1409-1416), teniposide-resistant leukaemia (CEM/VM1; see e.g. Danks M K et al. Cancer Res. 1987, 47, 1297-1301), lung cancer (H69; see e.g. Gazdar A F, et al. Cancer Res. 1980, 40, 3502-3507), doxorubicin-resistant lung cancer (H69AR; see e.g. Mirski S E, et al. Cancer Res. 1987, 47, 2594-2598), myeloma (RPMI 8226; see e.g. Matsuoka Y, et al. Proc. Soc. Exp. Biol. Med. 1967, 125, 1246-1250), doxorubicin-resistant myeloma (8226/Dox40; see e.g. Dalton W S et al. Blood 1989, 15,747-752), lymphoma (U-937, see e.g. Sundstrom C, et al. Int. […]
# [1] = test system: CCRF-CEM cancer cells - leukaemia; assay: Fluorometric Microculture Cytotoxicity Assay (FMCA), CCRF-CEM; settings: Homo sapiens, 72 h incubation
# Text: as §1, §4
# In subsequent experiments, compounds were tested, along with kinase inhibitors (dasatinib, pazopanib, sorafenib, and sunitinib) as described above. Initially, the acute lymphoblastic leukaemia cell line CCRF-CEM (see e.g. Foley G E, et al. Cancer 1965, 18, 522-529) was used throughout. In the assay plates, medium was added to six empty wells (blank wells) and wells were filled with PBS and cell suspension and served as control wells. SI-values were then calculated for each compound-treated well as described above. All experiments were conducted twice and a new batch of plates was prepared for each experiment.
# For dose-response experiments, 384-well plates were prepared as follows:
# as §5, §6
# BxPC-3 = assay: FMCA, BxPC-3 pancreatic cancer; settings: Homo sapiens, read-out: EC50 (μM) in various cancer cell lines: BxPC-3
# Text: as §1, §2, §3
# H69 = assay: FMCA, H69 lung cancer; settings: Homo sapiens, NCI-H69, read-out: EC50 (μM) in various cancer cell lines: H69
# Text: as §1, §4, §5, §6, §7
# MIA PaCa-2 = assay: FMCA, MIA PaCa-2 pancreatic cancer; settings: Homo sapiens, read-out: EC50 (μM) in various cancer cell lines: MIA PaCa-2
# Text: as §1, §2, §3
# HCT116 = assay: FMCA, HCT116 colon cancer; settings: Homo sapiens, HCT-116, read-out: EC50 (μM) in various cancer cell lines: HCT116
# Text: as §1, §4, §5, §6, §7
# MCF7 = assay: FMCA, MCF7 breast cancer; settings: Homo sapiens, read-out: EC50 (μM) in various cancer cell lines: MCF7
# Text: as §1, §4, §5, §6, §7
# 8226/Dox40 = assay: FMCA, 8226/Dox40 doxorubicin-resistant myeloma; settings: read-out: EC50 (μM) in various cancer cell lines: 8226/Dox40
# Text: as §1, §4, §5, §6, §7
# A2780 = assay: FMCA, A2780 ovarian cancer; settings: Homo sapiens, read-out: EC50 (μM) in various cancer cell lines: A2780
# Text: as §1, §4, §5, §6, §7
# ACHN = assay: FMCA, ACHN renal cancer; settings: Homo sapiens, read-out: EC50 (μM) in various cancer cell lines: ACHN
# Text: as §1, §4, §5, §6, §7
# U-937-vcr = assay: FMCA, U-937-vcr vincristin-resistant lymphoma; settings: read-out: EC50 (μM) in various cancer cell lines: U-937-ver
# Text: as §1, §4, §5, §6, §7
# CEM/VM1 = assay: FMCA, CEM/VM1 teniposide-resistant leukaemia; settings: Homo sapiens, read-out: EC50 (μM) in various cancer cell lines: CEM/VM1
# Text: as §1, §4, §5, §6, §7
# RPMI 8226 = assay: FMCA, RPMI 8226 myeloma; settings: Homo sapiens, read-out: EC50 (μM) in various cancer cell lines: RPMI 8226
# Text: as §1, §4, §5, §6, §7
# A2780/Adr = assay: FMCA, A2780/Adr doxorubicin-resistant ovarian cancer; settings: read-out: EC50 (μM) in various cancer cell lines: A2780/Adr
# Text: as §1, §4, §5, §6, §8
# H69AR = assay: FMCA, H69AR doxorubicin-resistant lung cancer; settings: Homo sapiens, read-out: EC50 (μM) in various cancer cell lines: H69 AR
# Text: as §1, §4, §5, §6, §7
SMILES,EC50 (PANC-1) [µM],EC50 (U-937) [µM],EC50 (A2780/Cis) [µM],EC50 (BxPC-3) [µM],EC50 (H69) [µM],EC50 (MIA PaCa-2) [µM],EC50 (HCT116) [µM],EC50 (MCF7) [µM],EC50 (8226/Dox40) [µM],EC50 (A2780) [µM],EC50 (ACHN) [µM],EC50 (U-937-vcr) [µM],EC50 (CEM/VM1) [µM],EC50 (RPMI 8226) [µM],EC50 (A2780/Adr) [µM],EC50 (H69AR) [µM],pEC50 [1]
"c1cc(Nc2nccc(NCc3ccc4[nH]cnc4c3)n2)c2cc[nH]c2c1 [Example 19, N^4-(1H-benzo[d]imidazol-5-ylmethyl)-N^2-(1H-indol-4-yl)pyrimidine-2,4-diamine]",< 1,1.47,1.99,< 1,30.7,< 1,9.83,28.5,46.3,1.59,25.2,1.81,1.33,12.8,12.6,,5.99
"Cc1cc(NCc2ccc3[nH]ncc3c2)nc(Nc2cccc3[nH]ccc23)n1 [Example 37, N^4-(1H-indazol-5-ylmethyl)-N^2-(1H-indol-4-yl)-6-methylpyrimidine-2,4-diamine]",< 0.1,0.29,0.32,< 0.1,11.6,< 0.1,6.2,4.92,2.02,0.45,3.08,0.34,0.23,0.81,1.71,,6.38

# Stronger by EC50 (U-937), values ahead:
EC50 (PANC-1) [µM],EC50 (U-937) [µM],EC50 (A2780/Cis) [µM],EC50 (BxPC-3) [µM],EC50 (H69) [µM],EC50 (MIA PaCa-2) [µM],EC50 (HCT116) [µM],EC50 (MCF7) [µM],EC50 (8226/Dox40) [µM],EC50 (A2780) [µM],EC50 (ACHN) [µM],EC50 (U-937-vcr) [µM],EC50 (CEM/VM1) [µM],EC50 (RPMI 8226) [µM],EC50 (A2780/Adr) [µM],EC50 (H69AR) [µM],SMILES,pEC50 [1]
,0.22,,,37.2,,2.47,12.4,24.4,1.37,5.43,1.74,0.33,5.01,,0.71,"Cc1cc2cc(Nc3ccnc(NCc4ccc5[nH]cnc5c4)n3)ccc2[nH]1 [Example 67, N^2-(1H-benzo[d]imidazol-5-ylmethyl)-N^4-(2-methyl-1H-indol-5-yl)pyrimidine-2,4-diamine]",6.68
,0.19,0.22,,9.35,,0.51,4.43,0.41,0.28,1.26,0.19,0.21,0.23,0.6,0.46,"Cc1cc2cc(Nc3ccnc(NCc4ccc5[nH]ccc5c4)n3)ccc2[nH]1 [Example 24, N^2-(1H-indol-5-ylmethyl)-N^4-(2-methyl-1H-indol-5-yl)pyrimidine-2,4-diamine]",6.42
,0.07,0.35,,10.8,,6.7,9,0.37,0.7,2.54,0.07,0.12,0.5,2.4,,"c1cc(Nc2nccc(NCc3ccc4[nH]ccc4c3)n2)c2cc[nH]c2c1 [Example 1, N^4-(1H-indol-5-ylmethyl)-N^2-(1H-indol-4-yl)pyrimidine-2,4-diamine]",6.48

# — US8927547B2, “Pyrimidine derivatives” (Noviga Research AB, priority 2010, dated 2015)
